{"source": "ChEMBL document CHEMBL4190382", "about": "“Targeting lysine specific demethylase 4A (KDM4A) tandem TUDOR domain - A fragment based approach” (Bioorg Med Chem Lett, 2018)", "key": {"[1]": {"molecular_target": "T1, Lysine-specific demethylase 4A (Homo sapiens, UniProt O75164)", "T1 sequence (O75164 whole entry)": "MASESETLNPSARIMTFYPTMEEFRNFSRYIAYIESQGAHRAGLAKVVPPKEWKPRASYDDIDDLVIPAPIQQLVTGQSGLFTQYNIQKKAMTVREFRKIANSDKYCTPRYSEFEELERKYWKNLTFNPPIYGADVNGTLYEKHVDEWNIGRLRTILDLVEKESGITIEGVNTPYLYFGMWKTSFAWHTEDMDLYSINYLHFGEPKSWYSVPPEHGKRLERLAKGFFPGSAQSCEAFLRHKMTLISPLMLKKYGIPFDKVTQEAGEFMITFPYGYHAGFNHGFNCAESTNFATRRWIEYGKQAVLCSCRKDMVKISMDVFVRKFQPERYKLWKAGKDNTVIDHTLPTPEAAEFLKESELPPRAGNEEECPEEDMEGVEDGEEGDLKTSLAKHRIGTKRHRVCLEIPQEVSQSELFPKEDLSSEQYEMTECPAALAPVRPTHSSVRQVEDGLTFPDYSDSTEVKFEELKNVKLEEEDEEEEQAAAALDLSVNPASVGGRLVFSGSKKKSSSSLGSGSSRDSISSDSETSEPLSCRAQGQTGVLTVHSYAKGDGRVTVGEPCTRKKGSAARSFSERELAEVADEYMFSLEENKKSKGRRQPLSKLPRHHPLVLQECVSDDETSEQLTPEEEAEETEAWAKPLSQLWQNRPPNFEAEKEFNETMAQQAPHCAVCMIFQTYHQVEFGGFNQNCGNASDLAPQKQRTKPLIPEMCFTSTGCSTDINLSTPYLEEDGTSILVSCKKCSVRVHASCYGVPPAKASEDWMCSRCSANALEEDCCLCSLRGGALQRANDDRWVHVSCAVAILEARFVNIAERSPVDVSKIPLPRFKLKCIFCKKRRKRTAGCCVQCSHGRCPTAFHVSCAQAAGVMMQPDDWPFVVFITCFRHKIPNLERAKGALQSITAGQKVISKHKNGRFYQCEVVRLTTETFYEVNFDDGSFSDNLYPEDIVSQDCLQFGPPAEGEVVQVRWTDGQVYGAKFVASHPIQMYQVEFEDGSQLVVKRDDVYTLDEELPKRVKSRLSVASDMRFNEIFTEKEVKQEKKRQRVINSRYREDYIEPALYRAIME", "experiment": "(§1) Binding affinity to thrombin cleavable N-terminal 6His-tagged and 13C-IVLM labeled human KDM4A tandem TUDOR domain (897 to 1011 residues) expressed in Escherichia coli BL21(DE3)-T1R at 1 mM by 13C HSQC NMR spectroscopy"}, "[2]": {"molecular_target": "T1, Lysine-specific demethylase 4A", "experiment": "Binding affinity to thrombin cleavable N-terminal 6His tagged and 13C-IVLM labeled human KDM4A tandem TUDOR domain (897 to 1011 residues) expressed in Escherichia coli BL21(DE3)-T1R by ITC method"}, "[3]": {"molecular_target": "T2, Lysine-specific demethylase 4A (Homo sapiens) (UniProt O75164)", "T2 sequence (whole entry)": "T1 sequence (O75164 whole entry)", "experiment": "as §1"}, "[4]": {"molecular_target": "T1, Lysine-specific demethylase 4A", "experiment": "Inhibition of NanoLuc-KDM4A-TUDOR domain (unknown origin) binding to Histone H3.3-HaloTag expressed in 293T cells incubated for 18 hrs by Nano-BRET based target engagement assay", "type": "cell-based"}}, "note": "Calls of active or inactive are those of the source. The rule behind the calls is not given here. Square brackets hold non-standard residues; d marks the D form. Peptide text beside a SMILES is read from it. Lys(Me3) = C[N+](C)(C)CCCC[C@H](N)C(=O)O"}
{"compound": "CN(C)CC1C2CCC(c3ccccc3)(C2)C1O", "note": "(stereo not given)", "values": [{"measurement": "Kd", "setting": "[1]", "value": 80, "unit": "µM"}]}
{"compound": "C[C@H](N)C(=O)N[C@@H](CCCNC(=N)N)C(=O)N[C@H](C(=O)N[C@@H](CCCC[N+](C)(C)C)C(=O)N[C@@H](CCC(N)=O)C(=O)N[C@H](C(=O)N[C@@H](C)C(=O)N[C@@H](CCCNC(=N)N)C(=O)N[C@@H](CCCCN)C(=O)N[C@@H](CO)C(=O)O)[C@@H](C)O)[C@@H](C)O", "values": [{"measurement": "Kd", "setting": "[2]", "value": 3, "unit": "µM"}, {"measurement": "Activity", "setting": "[3]", "value": "Active"}]}
{"compound": "CC(C)C[C@H](NC(=O)[C@@H](NC(=O)[C@H](CCCC[N+](C)(C)C)NC(=O)[C@H](CCCNC(=N)N)NC(=O)[C@H](Cc1cnc[nH]1)NC(=O)[C@H](CCCNC(=N)N)NC(=O)[C@@H](N)CCCCN)C(C)C)C(=O)N[C@@H](CCCNC(=N)N)C(=O)N[C@@H](CC(=O)O)C(=O)N[C@@H](CC(N)=O)C(=O)O", "note": "(H-KRHR[Lys(Me3)]VLRDN-OH)", "values": [{"measurement": "Kd", "setting": "[2]", "value": 4.7, "unit": "µM"}]}
{"compound": "CN(C)C[C@@H]1C2CCC(c3ccccc3)(C2)[C@@H]1O", "note": "(stereo not given in full)", "values": [{"measurement": "EC50", "setting": "[4]", "value": 1220, "unit": "µM"}]}
